Measurements reported in the NIST ThermoML archive (doi:10.1016/j.jct.2017.03.022).
± gives the expanded uncertainty stated by the source.

What was measured:
[1] = xn = mol fraction of the nth substance listed; conditions: 101 kPa, Liquid; for speed of sound: Frequency=3 MHz, Single path-length method; for mass density: Vibrating tube method
[2] = 101 kPa, Liquid, Vibrating tube method

For `CC(O)CO` (stereo not given) [1,2-propanediol] + O=C1CCCN1, the speed of sound ([1]; 303.15 K, x2 = 0) was 1496.6 ± 1.3 m/s, the mass density ([1]; 303.15 K, x2 = 0) was 1028.94 ± 1 kg/m3 and the speed of sound ([1]; 308.15 K, x2 = 0) was 1482.6 ± 1.3 m/s. The mass density ([1]; 308.15 K, x2 = 0) was 1025.2 ± 1 kg/m3, the speed of sound ([1]; 313.15 K, x2 = 0) was 1468.5 ± 1.3 m/s and the mass density ([1]; 313.15 K, x2 = 0) was 1021.43 ± 1 kg/m3. For the same compound, the speed of sound ([1]; 318.15 K, x2 = 0) was 1454.3 ± 1.3 m/s, the mass density ([1]; 318.15 K, x2 = 0) was 1017.63 ± 1 kg/m3 and the speed of sound ([1]; 323.15 K, x2 = 0) was 1440.1 ± 1.3 m/s. It also gave a mass density ([1]; 323.15 K, x2 = 0) of 1013.79 ± 1 kg/m3.

With `O=C1CCCN1` [2-pyrrolidinone] + OCCCO the speed of sound ([1]; 303.15 K, x1 = 1) was 1617.7 ± 1.2 m/s, the mass density ([1]; 303.15 K, x1 = 1) was 1103.07 ± 1 kg/m3 and the speed of sound ([1]; 308.15 K, x1 = 1) was 1601.3 ± 1.2 m/s. It also gave a mass density ([1]; 308.15 K, x1 = 1) of 1098.99 ± 1 kg/m3, a speed of sound ([1]; 313.15 K, x1 = 1) of 1585.4 ± 1.2 m/s and a mass density ([1]; 313.15 K, x1 = 1) of 1094.9 ± 1 kg/m3. The speed of sound ([1]; 318.15 K, x1 = 1) was 1570.4 ± 1.2 m/s, the mass density ([1]; 318.15 K, x1 = 1) was 1090.82 ± 1 kg/m3 and the speed of sound ([1]; 323.15 K, x1 = 1) was 1553.5 ± 1.2 m/s. The mass density ([1]; 323.15 K, x1 = 1) was 1086.75 ± 1 kg/m3.

Compound `OCCCO` [propan-1,3-diol] has a mass density ([2]; 303.15 K) of 1046.56 ± 1 kg/m3, a mass density ([2]; 308.15 K) of 1043.43 ± 1 kg/m3 and a mass density ([2]; 313.15 K) of 1040.28 ± 1 kg/m3. It also gave a mass density ([2]; 318.15 K) of 1037.11 ± 1 kg/m3 and a mass density ([2]; 323.15 K) of 1033.92 ± 1 kg/m3.
